The values that follow come from ChEMBL document CHEMBL1201862, “PubChem BioAssay data set” (2004).

Test systems include DMS-114; M19-MEL; KM-20L2; DLD-1; SNB-78; DMS-273; XF498; HOP-18; RXF 631.
Common to all, as to experiment: NCI-60 cell line screen, 48 h

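Interpolation was linear, between the two tested concentrations surrounding the appropriate level; five concentrations were tested over 48 hours in 96-well plates. Abbreviation: GI50, concentration required for 50% inhibition of growth.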 The source made the active and inactive calls. Cut-off read from the data, not from the text of the source: active = GI50 up to about 1.1 µM and inactive = higher.

With `CCc1cc2c(O)c(c1)Cc1cc(CC)cc(c1O)Cc1cc(CC)cc(c1O)Cc1cc(CC)cc(c1O)Cc1cc(CC)cc(c1O)Cc1cc(CC)cc(c1O)Cc1cc(CC)cc(c1O)C2`, the GI50 is > 100 µM (inactive) in the assay with DMS-114; > 100 µM (inactive) with M19-MEL; > 100 µM (inactive) with KM-20L2; > 100 µM (inactive) in the assay on DLD-1; 55 µM (inactive) in the assay with SNB-78; > 100 µM (inactive) in the assay with DMS-273. In the assay with XF498, the GI50 was 48.2 µM (inactive).
As for `CCc1nc2c([nH]1)C(=O)c1ccccc1C2=O`, the GI50 is 21.2 µM (inactive) in the assay with DMS-114; 15.3 µM (inactive) in the assay with M19-MEL; 39.1 µM (inactive) in the assay on DLD-1; 53.7 µM (inactive) with SNB-78; 37.1 µM (inactive) in the assay with DMS-273; 15.9 µM (inactive) in the assay on XF498.
With `Cc1ccccc1C1OC(=O)c2ccc3ccccc3c21` (centres undefined), the GI50 is 4.67 µM (inactive) in the assay on DMS-114; 3.27 µM (inactive) with M19-MEL; 7.64 µM (inactive) in the assay on HOP-18; 0.607 µM (active) with RXF 631; 4.16 µM (inactive) in the assay on KM-20L2; 3.37 µM (inactive) in the assay on DLD-1. Also, the GI50 in the assay with SNB-78 is 6.5 µM (inactive); with DMS-273, 3.5 µM (inactive); in the assay on XF498, 2.31 µM (inactive).
For the compound `O=c1/c(=C/c2ccccc2[N+](=O)[O-])sc2nc3ccccc3n12`, the GI50 in the assay with DMS-114 is 16.3 µM (inactive); in the assay with M19-MEL, 28.6 µM (inactive); in the assay with HOP-18, 44.6 µM (inactive); in the assay on RXF 631 it was 17.5 µM (inactive); with KM-20L2, > 100 µM (inactive); in the assay on DLD-1 it was 27.7 µM (inactive). The GI50 with SNB-78 is 23.1 µM (inactive); in the assay with DMS-273 it was 20 µM (inactive); with XF498 it was 16 µM (inactive).
Regarding `CSc1ccc(N2C(=O)C3c4[nH]c5ccccc5c4C4CCC(C(C)(C)C)CC4C3C2=O)cc1` (centres undefined), the GI50 with DMS-114 was 15.2 µM (inactive); in the assay with M19-MEL it was 31.9 µM (inactive); with HOP-18 it was 22.8 µM (inactive); with KM-20L2, 48.4 µM (inactive); with DLD-1, 52.4 µM (inactive); with SNB-78, 7.94 µM (inactive). Also, the GI50 in the assay with DMS-273 was 10.6 µM (inactive); in the assay with XF498, 27.7 µM (inactive).
Turning to `O=C(Nc1ccccc1Cl)c1ccc([N+](=O)[O-])cc1`, the GI50 in the assay on M19-MEL is > 100 µM (inactive); in the assay on KM-20L2 it was > 100 µM (inactive); with DLD-1 it was > 100 µM (inactive); in the assay on SNB-78, 39.7 µM (inactive); in the assay on DMS-273, > 100 µM (inactive); with XF498 it was > 100 µM (inactive).
For `Nc1c2ccccc2nc2nccnc12`, the GI50 in the assay with DMS-114, in the assay on M19-MEL, in the assay on HOP-18, in the assay with KM-20L2, in the assay on DLD-1 and in the assay with SNB-78 was > 100 µM (inactive) each time. The GI50 in the assay on DMS-273 and in the assay on XF498 was > 100 µM (inactive) each time.
`CC1=C(C)CC2(CCCCC2=O)[S+]([O-])C1` (centres undefined): the GI50 in the assay with DMS-114, with M19-MEL, in the assay on HOP-18, with KM-20L2, with DLD-1 and with SNB-78 was > 100 µM (inactive) in each case. Besides, the GI50 in the assay on DMS-273 and in the assay on XF498 was > 100 µM (inactive) throughout.
In the case of `N=C(N)NS(=O)(=O)c1ccc(NC(=O)c2cccc3c(O)c4ccccc4nc23)cc1`, the GI50 in the assay on DMS-114 was > 100 µM (inactive); with M19-MEL it was > 100 µM (inactive); in the assay with HOP-18, > 86.5 µM (inactive); with KM-20L2 it was > 100 µM (inactive); in the assay with DLD-1, > 100 µM (inactive); in the assay on SNB-78, 42.1 µM (inactive). Also, the GI50 with DMS-273 and in the assay with XF498 was > 100 µM (inactive) in each case.
As for `CC(=O)OCC1OC(n2c(=O)n(-c3ccccc3)c(=O)c3cc(Br)cc(Br)c32)C(OC(C)=O)C(OC(C)=O)C1OC(C)=O` (centres undefined), the GI50 in the assay with DMS-114 was > 100 µM (inactive); in the assay on M19-MEL, > 100 µM (inactive); in the assay with HOP-18, > 100 µM (inactive); in the assay with RXF 631 it was > 100 µM (inactive); in the assay with KM-20L2, 8.95 µM (inactive); in the assay with DLD-1, > 100 µM (inactive). Further, the GI50 with SNB-78, in the assay with DMS-273 and with XF498 was > 100 µM (inactive) in each case.
With `COc1ccc(-c2oc3cc(O)c(OC)c(O)c3c(=O)c2OC2OC(CO)C(O)C(O)C2O)cc1` (centres undefined), the GI50 in the assay with DMS-114 is > 100 µM (inactive); in the assay with M19-MEL, > 100 µM (inactive); in the assay on HOP-18, 50.4 µM (inactive); with KM-20L2, > 100 µM (inactive); with DLD-1, > 100 µM (inactive); in the assay on SNB-78 it was > 100 µM (inactive). The GI50 in the assay with DMS-273 was > 100 µM (inactive).
For the compound `CS/C(c1ccccc1)=[N+](/C)[O-]`, the GI50 in the assay on M19-MEL was > 100 µM (inactive); in the assay on HOP-18, > 100 µM (inactive); in the assay with RXF 631 it was > 100 µM (inactive); in the assay with KM-20L2, > 100 µM (inactive); in the assay with DLD-1, > 61.5 µM (inactive); in the assay on SNB-78, > 100 µM (inactive). Also, in the assay on XF498, the GI50 is > 100 µM (inactive).
For `Cc1ccc(Nc2cccc3c2C(=O)c2cccc(Nc4ccc(C)cc4S(=O)(=O)O)c2C3=O)c(S(=O)(=O)O)c1`, the GI50 with DMS-114, in the assay on M19-MEL, with HOP-18, with RXF 631, in the assay with KM-20L2 and in the assay on DLD-1 was > 100 µM (inactive) in each case. The GI50 in the assay on SNB-78 and in the assay on DMS-273 was > 100 µM (inactive) throughout.
As to `c1ccc(C2OC3(CCC[C@H]4C[C@H]43)O[C@H]2c2ccccc2)cc1` (some centres undefined), the GI50 with DMS-114 is 33.7 µM (inactive); in the assay with M19-MEL it was 32.2 µM (inactive); with RXF 631, 89.3 µM (inactive); in the assay with KM-20L2, 30.8 µM (inactive); with DLD-1, 78.9 µM (inactive); in the assay on SNB-78 it was 58.9 µM (inactive). Also, the GI50 in the assay on DMS-273 is 49.4 µM (inactive); in the assay on XF498 it was 22.7 µM (inactive).
Regarding `C[Si](C)(C)/C(Br)=C\CCN1C(=O)CCC1O` (centres undefined), the GI50 in the assay with DMS-114, in the assay with M19-MEL, in the assay with HOP-18, with KM-20L2, in the assay on SNB-78 and in the assay on DMS-273 was > 100 µM (inactive) in each case. Besides, the GI50 with XF498 was > 100 µM (inactive).
Take `CC1C=CC(O)[C@]2(CO)CC3(CCC12)OCCO3` (some centres undefined): the GI50 with DMS-114, with M19-MEL, with RXF 631, with KM-20L2, in the assay with DLD-1 and in the assay on SNB-78 was > 100 µM (inactive) in each case. The GI50 in the assay with DMS-273 and in the assay on XF498 was > 100 µM (inactive) in each case.
As to `Clc1cc(Cl)c2c(Cl)cc(Cl)c3c2c1N=S=N3`, the GI50 in the assay on DMS-114 is > 100 µM (inactive); with M19-MEL, > 100 µM (inactive); with HOP-18, > 100 µM (inactive); in the assay with KM-20L2, > 100 µM (inactive); in the assay on DLD-1, 83.8 µM (inactive); in the assay on SNB-78, > 100 µM (inactive). Also, the GI50 in the assay with DMS-273 is > 100 µM (inactive); in the assay with XF498 it was 12.9 µM (inactive).
Regarding `Cc1cc(C)c2c(c1)N[S@@](=O)S2`, the GI50 is 18.7 µM (inactive) in the assay on DMS-114; 21.7 µM (inactive) in the assay on M19-MEL; 23.6 µM (inactive) in the assay on HOP-18; 51.3 µM (inactive) in the assay with KM-20L2; 26.9 µM (inactive) in the assay on DLD-1; 26.1 µM (inactive) with SNB-78. For the same compound, the values for the GI50 in the assay with DMS-273 and in the assay with XF498 were 17.2 µM (inactive) and 22.6 µM (inactive), respectively.
For `N=C(N)NS(=O)(=O)c1ccc(NC(=O)c2cccc3c(Nc4ccc(S(N)(=O)=O)cc4)c4ccccc4nc23)cc1`, the GI50 in the assay with DMS-114, in the assay with M19-MEL, with HOP-18, in the assay on KM-20L2, with DLD-1 and in the assay with SNB-78 was > 100 µM (inactive) in each case. The GI50 in the assay with DMS-273 and in the assay on XF498 was > 100 µM (inactive) in each case.
As for `CCCCCCCC(=O)OCC(C[As](=O)(O)O)OC(=O)CCCCCCC` (centres undefined), the GI50 was 16.4 µM (inactive) in the assay with DMS-114; 15.7 µM (inactive) in the assay on M19-MEL; 15.8 µM (inactive) with HOP-18; 16.7 µM (inactive) in the assay with KM-20L2; 16.9 µM (inactive) in the assay with DLD-1; 18.7 µM (inactive) in the assay on SNB-78. Also, the GI50 in the assay on DMS-273 is 14.1 µM (inactive).
Regarding `CCOC(=O)N1C2C=C(C)C(C3C(C)C(=O)N31)N(C(=O)c1ccccc1)O2` (centres undefined), the GI50 in the assay on DMS-114, in the assay on M19-MEL, in the assay with HOP-18, in the assay on RXF 631, in the assay on DLD-1 and in the assay on SNB-78 was > 100 µM (inactive) each time. The GI50 in the assay on DMS-273 and with XF498 was > 100 µM (inactive) each time.
`COc1cc(/C=C(\C#N)c2ccccc2)cc(OC)c1`: the GI50 with DMS-114 was 27.5 µM (inactive); with M19-MEL it was 50 µM (inactive); in the assay on KM-20L2, 41.1 µM (inactive); in the assay on DLD-1, 76.9 µM (inactive); in the assay on SNB-78 it was 82.4 µM (inactive); in the assay with XF498 it was 48 µM (inactive).
For `C[C@H]1CC[P+](C)(c2ccccc2)C1` (some centres undefined), the GI50 with DMS-114, in the assay on M19-MEL, in the assay with HOP-18, with KM-20L2, in the assay on DLD-1 and in the assay with SNB-78 was > 100 µM (inactive) each time. The GI50 is > 100 µM (inactive) in the assay on DMS-273 and < 0.01 µM (active) in the assay on XF498.
In the case of `CCOC(=O)Cn1c2ccccc2c(=O)c2cc(C)c(C)c(C#N)c21`, the GI50 with M19-MEL, in the assay with HOP-18, in the assay on RXF 631, in the assay on KM-20L2, with DLD-1 and with SNB-78 was > 100 µM (inactive) in each case. Further, the GI50 was > 100 µM (inactive) in the assay on DMS-273 and 30.2 µM (inactive) in the assay with XF498.
